In data set [1] the target is T1, mushroom tyrosinase (mTYR) (Agaricus bisporus, UniProt C7FF04).
T1 construct: purchased Sigma-Aldrich (Poznan, Poland); host or cells: Agaricus bisporus (extracted natural enzyme)
Briefly: Tyrosinase assay with L-DOPA as substrate (absorbance at 475 nm). The conditions noted are these: 100 µM compound. The data set is classed as biochemical. The text has this: Tyrosinase (Tyr) extracted from Agaricus bisporus (mushroom tyrosinase, mTYR) is commonly used as a model enzyme for human Tyr due to its high purity, stability, and commercial availability. It is frequently used in the selection of TYR inhibitors. Following established literature protocols, L-tyrosine and L-DOPA, which serve as substrates for monophenol and diphenol oxidation, respectively, were used to assess the tyrosinase inhibitory activity of synthesized target compounds [21].
Tyrosinase (Tyr) activity was measured using L-DOPA as substrate and phosphate buffer solution (PBS) as blank control, following the method described by Min He et al. (2022) with an ultraviolet spectrophotometer (Carry-300, Agilent Life Sciences and Chemical Analysis, Santa Clara, CA, USA). […] Before the experiment, 2.9 mL of PBS and 0.1 mL of DMSO were used to account for the influence of the background solvent. The inhibitor solution (100 µL), substrate solution (2.8 mL), and Tyr solution (100 µL) were then added to a quartz colorimetric cuvette. After a one-minute mixing period, the absorption spectra of the mixture were continuously recorded at 475 nm using the UV spectrophotometer (Carry-300) for 5 min over a period of every 30 s. The tyrosinase inhibition rate was calculated as follows:Relative enzyme activity (%) = (A1 − A2)/A1 × 100
A1 = Absorbance of L-DOPA and inhibitor.
A2 = Absorbance of L-DOPA, inhibitor, and tyrosinase.

The next data set relates to E. coli K12 (ATCC 25404). The data set is described as follows: MIC and MBC, microtiter plate technique. The data set is classed as cell-based. The conditions noted are these: Escherichia coli; for MBC: ATCC25404; for MIC: ATCC25404, 24 h.
A further data set has as its system E. coli R2 (ATCC 39544). Briefly: MIC and MBC, microtiter plate technique. The data set is classed as cell-based. The conditions noted are these: Escherichia coli; for MBC: ATCC39544; for MIC: ATCC39544, 24 h.
A further data set deals with E. coli R3 (ATCC 11775). The data set is described as follows: MIC and MBC, microtiter plate technique. The conditions noted are these: Escherichia coli; for MIC: ATCC11775, 24 h, resazurin; for MBC: ATCC11775, TTC. The data set is classed as cell-based. On the technique in general: Alamar Blue is a resazurin reagent that responds to reducing activity.
Another data set relates to E. coli R4 (ATCC 39543). The data set is described as follows: MIC and MBC, microtiter plate technique. The data set is classed as cell-based. The conditions noted are these: Escherichia coli; for MBC: ATCC39543; for MIC: ATCC39543, 24 h.
Data set [2] deals with A. baumannii (ATCC 17978). Briefly: MIC and MBC, microtiter plate technique. The data set is classed as cell-based. The conditions noted are these: ATCC17978, Acinetobacter baumannii; for MIC: 24 h, resazurin; for MBC: TTC.
In data set [3] the test system is P. aeruginosa (ATCC 15442). Briefly: MIC and MBC, microtiter plate technique. The data set is classed as cell-based. The conditions noted are these: ATCC15442, Pseudomonas aeruginosa; for MIC: 24 h, resazurin; for MBC: TTC.
The test system of another data set is E. cloacae (ATCC 49141). The data set is described as follows: MIC and MBC, microtiter plate technique. The data set is classed as cell-based. The conditions noted are these: ATCC49141, Enterobacter cloacae; for MIC: 24 h, resazurin; for MBC: TTC.
Another data set has as its system S. aureus (ATCC 23235). The data set is described as follows: microbe, parasite or virus in culture. The data set is classed as cell-based. The conditions noted are these: Staphylococcus aureus; for MBC: ATCC23235; for MIC: ATCC23235, 24 h.
Data set [4] deals with E. coli, A. baumannii, P. aeruginosa, E. cloacae, and S. aureus. The data set is described as follows: MIC and MBC over all model bacterial strains (summary statements). The data set is classed as cell-based. The conditions noted are these: Gram-positive and Gram-negative bacteria.
Another data set can be described thus: MTT cytotoxicity assay. The data set is classed as cell-based. The conditions noted are these: mouse, BALB/c3T3 mouse embryonic fibroblast cells; 24 h of incubation; (±0.14); read-out: half maximum inhibitory concentration (IC50), cytotoxicity. The method, then:
Following the completion of MIC and MBC assays on the analyzed bacterial strains, and subsequent treatment with Fpg protein modified by peptidomimetics along with selected antibiotics, a further MTT assay was conducted to evaluate the cytotoxicity of the compounds employing the BALB/c3T3 mouse embryonic fibroblast cell line (Figure 10).
BALB/c3T3 mouse embryonic fibroblast cells were exposed to peptidomimetics across concentrations ranging from 0.5 µM to 3.5 µM and incubated for a duration of 24 h. […] The highest concentrations (2.5 µM and 3.5 µM) inhibited cell viability, which was reduced to 20.2% and 1.0%, respectively (Figure 10 and Figure S40 in the Supplementary Materials).
The cytotoxic effects of aldehyde 1 and peptidomimetics 5a–r on BALB/c3T3 mouse fibroblast cells were assessed utilizing the MTT assay following a 24 h incubation period across five different concentrations (0.5, 1.0, 1.5, 2.5, and 3.5 µM). The MTT assay is predicated upon the capacity of mitochondrial dehydrogenase enzymes to convert the water-soluble tetrazolium salt, 3-([…])-2,5-diphenyltetrazolium bromide (MTT), into an insoluble formazan product, manifesting as dark blue crystals. These formazan crystals are then dissolved in DMSO or isopropanol, forming a colored solution whose intensity is measured spectrophotometrically within the wavelength range of 492–570 nm. The amount of MTT reduced corresponds to the oxidative activity of the mitochondria, which is directly proportional to the number of metabolically active cells in the population under defined experimental conditions. The MTT assay can also be used to assess cell viability in non-dividing metabolically active cells. It is one of the most widely used methods to assess cytotoxic activity and is recommended by international standards organizations as a reference method.
For orientation: Formazan colour is commonly taken as a measure of viable cells.

In data set [5] the target is T1, mushroom tyrosinase (mTYR). On the set-up: method as in earlier work. The conditions noted are these: reported value; cited from earlier work.

In brackets after ≈: the same amount, converted by molar mass.

In general, inhibition refers to the relative decrease from the control value, in per cent.

T1 sequence (C7FF04 1-392 limits assumed): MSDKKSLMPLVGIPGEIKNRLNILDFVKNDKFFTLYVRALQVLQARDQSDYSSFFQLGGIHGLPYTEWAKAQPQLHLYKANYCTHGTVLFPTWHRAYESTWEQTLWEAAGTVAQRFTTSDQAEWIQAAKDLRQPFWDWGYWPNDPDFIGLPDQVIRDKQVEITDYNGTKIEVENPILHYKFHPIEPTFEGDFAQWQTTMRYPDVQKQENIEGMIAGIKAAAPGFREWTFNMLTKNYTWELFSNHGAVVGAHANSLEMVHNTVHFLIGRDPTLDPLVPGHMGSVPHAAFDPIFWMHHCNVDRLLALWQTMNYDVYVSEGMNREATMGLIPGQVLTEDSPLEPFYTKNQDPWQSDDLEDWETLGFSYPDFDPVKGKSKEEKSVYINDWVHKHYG

In turn, `COc1ccc(CN(C(=O)Cc2ccccc2)C(C(=O)NCc2ccccc2)c2ccc(O)c(O)c2)cc1` (stereo not shown) [Compound 5a, N-benzyl-2-(3,4-dihydroxyphenyl)-2-(N-(4-methoxybenzyl)-2-phenylacetamido)-acetamide] displayed an inhibition at 100 µM in data set [1] below 10%. Further, the MBC in the data set on E. coli K12 (ATCC 25404) was 0.32 µM (≈ 0.163 µg/mL); with E. coli R2 (ATCC 39544), 0.62 µM (≈ 0.317 µg/mL); with E. coli R3 (ATCC 11775) it was 0.84 µM (≈ 0.429 µg/mL); in the data set with E. coli R4 (ATCC 39543), 1.15 µM (≈ 0.587 µg/mL); in [2], 0.68 µM (≈ 0.347 µg/mL); in data set [3] it was 0.66 µM (≈ 0.337 µg/mL). Further, the MBC in the data set with E. cloacae (ATCC 49141) came out at 0.62 µM (≈ 0.317 µg/mL); in the data set on S. aureus (ATCC 23235), 0.68 µM (≈ 0.347 µg/mL). For the same molecule, the MIC was determined as 0.3 µM (≈ 0.153 µg/mL) in the data set with E. coli K12 (ATCC 25404); 0.59 µM (≈ 0.301 µg/mL) against E. coli R2 (ATCC 39544); 0.66 µM (≈ 0.337 µg/mL) in the data set on E. coli R3 (ATCC 11775); 0.88 µM (≈ 0.449 µg/mL) in the data set with E. coli R4 (ATCC 39543); 0.63 µM (≈ 0.322 µg/mL) in [2]; 0.62 µM (≈ 0.317 µg/mL) in data set [3]. The MIC worked out at 0.58 µM (≈ 0.296 µg/mL) with E. cloacae (ATCC 49141) and 0.65 µM (≈ 0.332 µg/mL) in the data set on S. aureus (ATCC 23235). The “antibacterial spectrum” value in data set [4] is “broad-spectrum activity”. The IC50 at 24 h in the data set “MTT cytotoxicity assay” is 1.61 µM.
In the case of `O=Cc1ccc(O)c(O)c1` [Compound 1, 3,4-dihydroxybenzaldehyde, reference compound], the inhibition at 100 µM in data set [1] is 15%. The MBC is 1.82 µM (≈ 0.251 µg/mL) with E. coli K12 (ATCC 25404); 2.6 µM (≈ 0.359 µg/mL) with E. coli R2 (ATCC 39544); 2.96 µM (≈ 0.409 µg/mL) against E. coli R3 (ATCC 11775); 3.58 µM (≈ 0.494 µg/mL) in the data set with E. coli R4 (ATCC 39543); 3.55 µM (≈ 0.49 µg/mL) in [2]; 3.33 µM (≈ 0.46 µg/mL) in data set [3]. In addition, the MBC in the data set with E. cloacae (ATCC 49141) amounted to 3.04 µM (≈ 0.42 µg/mL); in the data set on S. aureus (ATCC 23235), 3.33 µM (≈ 0.46 µg/mL). Also, the MIC in the data set on E. coli K12 (ATCC 25404) worked out at 1.39 µM (≈ 0.192 µg/mL); in the data set on E. coli R2 (ATCC 39544), 2.46 µM (≈ 0.34 µg/mL); against E. coli R3 (ATCC 11775), 2.85 µM (≈ 0.394 µg/mL); against E. coli R4 (ATCC 39543) it was 3.57 µM (≈ 0.493 µg/mL); in data set [2] it was 2.82 µM (≈ 0.39 µg/mL); in [3], 3 µM (≈ 0.414 µg/mL). The results for the MIC in the data set with E. cloacae (ATCC 49141) and in the data set on S. aureus (ATCC 23235) were 2.75 µM (≈ 0.38 µg/mL) and 2.67 µM (≈ 0.369 µg/mL), respectively. In addition, in data set [5], the IC50 is 250 µM.

Values taken from publication PMC11855086, “Synthesis, Antimicrobial Activity, and Tyrosinase Inhibition by Multifunctional 3,4-Dihydroxy-Phenyl Peptidomimetics” (International Journal of Molecular Sciences, 2025).
